The results in this text go back to PubChem BioAssay AID284 (DTP/NCI, 2004).

The subject of the test is BDF1 mice, L1210/MTX-resistant leukemia ip, survival T/C. The experiment in a line: NCI In Vivo Anticancer Drug Screen. Data for tumor model L1210 Leukemia resistant to Methotrexate; NSC 740 (intraperitoneal) in B6D2F1 (BDF1) mice. As to conditions: endpoint: mean survival time, higher = longer survival. On the procedure:
The antitumor activity of compounds was measured in mice bearing transplantable tumors. Survival or tumor size were measured and the results are expressed as the measurement made in the treated group (T) divided by the measurement made in the vehicle treated control group (C). The tumor model used in this assay is L1210 Leukemia resistant to Methotrexate; NSC 740 (intraperitoneal) in B6D2F1 (BDF1) mice

[1] abbreviates: dose: 15.0 mg/kg/injection, schedule: Q01DX010 (ip), vehicle: saline.
The mark [2] stands for this setting: dose: 25.0 mg/kg/injection, schedule: Q01DX010 (ip), vehicle: saline.
Setting [3] is: dose: 1.6 mg/kg/injection, schedule: Q01DX Z (ip), vehicle: methylcellulose (MC).
The mark [4] stands for this setting: dose: 3.2 mg/kg/injection, schedule: Q01DX Z (ip), vehicle: methylcellulose (MC).
Where [5] appears, read: dose: 6.3 mg/kg/injection, schedule: Q01DX Z (ip), vehicle: methylcellulose (MC).
Setting [6] is: dose: 62.5 mg/kg/injection, schedule: Q01DX010 (ip), vehicle: saline.
Setting [7] is: dose: 125.0 mg/kg/injection, schedule: Q01DX010 (ip), vehicle: saline.

“And” between values parts separate entries of the source, which are not always exact repeats. Equal entries are not always repeated. Inconclusive results and toxic doses are left out.

Take `O=c1[nH]c(=O)n(C2CC(O)C(CO)O2)cc1Br` (centres undefined): the T/C runs as follows: (dose: 3.75 mg/kg/injection, schedule: Q01DX Z (ip), vehicle: carboxymethylcellulose (CMC)) 93 % of control; (dose: 7.5 mg/kg/injection, schedule: Q01DX Z (ip), vehicle: carboxymethylcellulose (CMC)) 120 % of control; (dose: 15.0 mg/kg/injection, schedule: Q01DX Z (ip), vehicle: carboxymethylcellulose (CMC)) 113 % of control; (dose: 30.0 mg/kg/injection, schedule: Q01DX Z (ip), vehicle: carboxymethylcellulose (CMC)) 104 % of control.
Consider `Clc1ncnc2nc[nH]c12`, for which the T/C is, setting by setting: (dose: 7.5 mg/kg/injection, schedule: Q01DX010 (ip), vehicle: saline) 90 % of control; under setting [1], 90 % of control and 96 % of control; (dose: 30.0 mg/kg/injection, schedule: Q01DX010 (ip), vehicle: saline) 92 % of control and 100 % of control; (dose: 60.0 mg/kg/injection, schedule: Q01DX010 (ip), vehicle: saline) 96 % of control.
Consider `C[N+](C)(C)c1ncnc2nc[nH]c12`, for which, under setting [1], the T/C is 94 % of control.
In the case of `O=NN(CCCl)C(=O)NCCCl`, the T/C (dose: 12.5 mg/kg/injection, schedule: Q01DX010 (ip), vehicle: saline) was 113 % of control; the T/C under setting [2] was 87 % of control and 91 % of control.
As to `C[C@]12CC[C@H](OC3OC(CO)C(O)C(O)C3O)C[C@H]1CC[C@@H]1[C@@H]2CC[C@]2(C)[C@@H](C3=CCOC3=O)CC[C@]12O` (some centres undefined), under “dose: 1.0 mg/kg/injection, schedule: Q01DX Z (ip), vehicle: saline”, the T/C was 86 % of control.
Turning to `CCN(CC)CCNc1ccc(C)c2sc3ccccc3c(=O)c12`, the T/C under setting [3] is 89 % of control and 93 % of control; the T/C under setting [4] is 93 % of control; the T/C under setting [5] was 93 % of control; the T/C (dose: 20.0 mg/kg/injection, schedule: Q01DX Z (ip), vehicle: carboxymethylcellulose (CMC)) was 112 % of control; the T/C under setting [2] is 159 % of control; the T/C (dose: 40.0 mg/kg/injection, schedule: Q01DX Z (ip), vehicle: carboxymethylcellulose (CMC)) was 106 % of control. Further, the T/C is 124 % of control (dose: 50.0 mg/kg/injection, schedule: Q01DX010 (ip), vehicle: saline); 113 % of control (dose: 80.0 mg/kg/injection, schedule: Q01DX Z (ip), vehicle: carboxymethylcellulose (CMC)); 213 % of control (dose: 100.0 mg/kg/injection, schedule: Q01DX010 (ip), vehicle: saline); 86 % of control (dose: 200.0 mg/kg/injection, schedule: Q01DX010 (ip), vehicle: saline).
Turning to `CCCSc1ncnc2nc[nH]c12`, the T/C (dose: 0.5 mg/kg/injection, schedule: Q01DX Z (ip), vehicle: other) was 103 % of control; the T/C (dose: 2.0 mg/kg/injection, schedule: Q01DX Z (ip), vehicle: other) was 93 % of control; the T/C (dose: 4.0 mg/kg/injection, schedule: Q01DX Z (ip), vehicle: other) is 93 % of control; the T/C (dose: 31.3 mg/kg/injection, schedule: Q01DX010 (ip), vehicle: saline) was 104 % of control; the T/C under setting [6] was 95 % of control; the T/C (dose: 87.5 mg/kg/injection, schedule: Q01DX Z (ip), vehicle: other) is 100 % of control. Further, the T/C under setting [7] is 90 % of control; the T/C (dose: 175.0 mg/kg/injection, schedule: Q01DX Z (ip), vehicle: other) was 88 % of control; the T/C (dose: 250.0 mg/kg/injection, schedule: Q01DX010 (ip), vehicle: saline) was 88 % of control.
Regarding `N[C@@H](Cc1ccc(N(CCCl)CCCl)cc1)C(=O)O`, the T/C (dose: 0.5 mg/kg/injection, schedule: Q01DX Z (ip), vehicle: carboxymethylcellulose (CMC)) was 114 % of control; the T/C (dose: 1.0 mg/kg/injection, schedule: Q01DX Z (ip), vehicle: carboxymethylcellulose (CMC)) was 100 % of control; the T/C (dose: 2.0 mg/kg/injection, schedule: Q01DX Z (ip), vehicle: carboxymethylcellulose (CMC)) is 110 % of control; the T/C (dose: 3.0 mg/kg/injection, schedule: Q01DX Z (ip), vehicle: carboxymethylcellulose (CMC)) is 114 % of control; the T/C (dose: 4.0 mg/kg/injection, schedule: Q01DX Z (ip), vehicle: carboxymethylcellulose (CMC)) is 107 % of control; the T/C (dose: 6.0 mg/kg/injection, schedule: Q01DX Z (ip), vehicle: carboxymethylcellulose (CMC)) was 97 % of control. For the same compound, the T/C (dose: 8.0 mg/kg/injection, schedule: Q01DX Z (ip), vehicle: carboxymethylcellulose (CMC)) was 86 % of control.
For the compound `Nc1nc(F)nc2c1ncn2C1OC(CO)C(O)C1O` (centres undefined), the T/C reads like this: (dose: 0.25 mg/kg/injection, schedule: Q01DX Z (ip), vehicle: saline) 122 % of control; (dose: 0.75 mg/kg/injection, schedule: Q01DX Z (ip), vehicle: saline) 115 % of control; (dose: 1.5 mg/kg/injection, schedule: Q01DX Z (ip), vehicle: saline) 108 % of control; (dose: 3.0 mg/kg/injection, schedule: Q01DX Z (ip), vehicle: saline) 104 % of control; (dose: 6.0 mg/kg/injection, schedule: Q01DX Z (ip), vehicle: saline) 86 % of control; (dose: 25.0 micrograms/kg/injection, schedule: Q01DX Z (ip), vehicle: saline) 91 % of control. Further, the T/C was 92 % of control (dose: 50.0 micrograms/kg/injection, schedule: Q01DX Z (ip), vehicle: saline); 100 % of control (dose: 100.0 micrograms/kg/injection, schedule: Q01DX Z (ip), vehicle: saline); 86 % of control (dose: 210.0 micrograms/kg/injection, schedule: Q01DX Z (ip), vehicle: saline).
`O=c1[nH]c(=O)n(C2CC(O)C(CO)O2)cc1F` (centres undefined): the T/C by setting is: (dose: 40.0 mg/kg/injection, schedule: Q01DX Z (ip), vehicle: other) 118 % of control; (dose: 80.0 mg/kg/injection, schedule: Q01DX Z (ip), vehicle: other) 98 % of control; (dose: 160.0 mg/kg/injection, schedule: Q01DX Z (ip), vehicle: other) 102 % of control.
`O=C(CCBr)N1CCN(C(=O)CCBr)CC1`: the T/C is, setting by setting: under setting [3], 86 % of control; under setting [4], 90 % of control; under setting [5], 100 % of control.
Take `O=C(Nc1ccc(NC2=NCCN2)cc1)c1ccc(C(=O)Nc2ccc(NC3=NCCN3)cc2)cc1`: the T/C reads like this: (dose: 2.0 mg/kg/injection, schedule: Q01DX010 (ip), vehicle: saline) 167 % of control and 219 % of control; (dose: 4.0 mg/kg/injection, schedule: Q01DX010 (ip), vehicle: saline) 248 % of control and 257 % of control; (dose: 8.0 mg/kg/injection, schedule: Q01DX010 (ip), vehicle: saline) 188 % of control and 243 % of control; (dose: 16.0 mg/kg/injection, schedule: Q01DX010 (ip), vehicle: saline) 101 % of control and 106 % of control.
Regarding `CCOC(N)=O`, the T/C by setting is: under setting [6], 87 % of control; under setting [7], 98 % of control; (dose: 188.0 mg/kg/injection, schedule: Q01DX Z (ip), vehicle: saline) 102 % of control; (dose: 250.0 mg/kg/injection, schedule: Q01DX Z (ip), vehicle: saline) 91 % of control; (dose: 375.0 mg/kg/injection, schedule: Q01DX Z (ip), vehicle: saline) 87 % of control and 99 % of control; (dose: 500.0 mg/kg/injection, schedule: Q01DX010 (ip), vehicle: saline) 88 % of control. The T/C is 93 % of control (dose: 750.0 mg/kg/injection, schedule: Q01DX Z (ip), vehicle: saline) and 100 % of control (dose: 1500.0 mg/kg/injection, schedule: Q01DX Z (ip), vehicle: saline).
As to `OCC1OC(n2cnc3c(=S)nc[nH]c32)C(O)C1O` (centres undefined), the T/C was 101 % of control and 102 % of control (dose: 20.0 mg/kg/injection, schedule: Q01DX010 (ip), vehicle: saline); 91 % of control and 101 % of control (dose: 40.0 mg/kg/injection, schedule: Q01DX010 (ip), vehicle: saline); 98 % of control (dose: 80.0 mg/kg/injection, schedule: Q01DX010 (ip), vehicle: saline); 88 % of control and 93 % of control (dose: 160.0 mg/kg/injection, schedule: Q01DX010 (ip), vehicle: saline).
